Some test systems named below: SF-295; HCT-15; TK-10; CCRF-CEM; HT-29; EKVX; ACHN; SF-539; COLO 205; DU-145; LOX IMVI; U-251; SN12C; SW-620; BT-549; NCI-H460; Malme-3M; NCI-H522; HOP-92.
Holding throughout (test): NCI tumour cell line growth inhibition, 48 h

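Cultured in 96-well plates, cells were exposed to test compound for 48 hours across five concentrations. GI50 marks 50% less growth.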 Calls of active or inactive are those of the source. No stated cut-off is given here; in the data, active = GI50 up to about 1.1 µM and inactive = higher.

Take `CCOP(=O)(/C=C\n1cnc2c(=O)n(C(C)=O)c(N)nc21)OCC`: the GI50 with SF-295 was > 100 µM (inactive); with HCT-15, above 100 µM; with TK-10, > 100 µM (inactive); with CCRF-CEM it was > 100 µM (inactive); in the experiment with HT-29, > 100 µM (inactive); in the experiment on EKVX, > 100 µM (inactive). The GI50 with ACHN, in the experiment with SF-539, with COLO 205, with DU-145, with LOX IMVI and with U-251 was > 100 µM (inactive) in each case. Also, the GI50 with SN12C, with SW-620, with BT-549 and with NCI-H460 was > 100 µM (inactive) each time.
As to `Cc1nnc2sc(NN)nn12`, the GI50 is > 100 µM (inactive) with SF-295; above 100 µM with HCT-15; > 100 µM (inactive) with TK-10; 41.4 µM (inactive) with CCRF-CEM; > 100 µM (inactive) with HT-29; > 100 µM (inactive) with EKVX. For the same molecule, the GI50 in the experiment with ACHN, in the experiment on Malme-3M, in the experiment with NCI-H522, in the experiment on SF-539, with COLO 205 and with DU-145 was > 100 µM (inactive) throughout. The GI50 with LOX IMVI, in the experiment on U-251, with SN12C, in the experiment on SW-620, in the experiment on BT-549 and in the experiment on NCI-H460 was > 100 µM (inactive) throughout.
For `O=C(CN1C(=O)c2ccccc2C1=O)NC1(C(=O)O)CCCC1`, the GI50 with SF-295 is > 100 µM (inactive); in the experiment with HCT-15 it was above 100 µM; in the experiment with TK-10, > 100 µM (inactive); in the experiment with CCRF-CEM, > 100 µM (inactive); in the experiment on HT-29, > 100 µM (inactive); in the experiment with EKVX it was > 100 µM (inactive). Besides, the GI50 in the experiment on ACHN, with Malme-3M, with NCI-H522, in the experiment with COLO 205, with DU-145 and in the experiment with LOX IMVI was > 100 µM (inactive) in each case. The GI50 in the experiment on U-251, with SN12C, in the experiment with SW-620 and with BT-549 was > 100 µM (inactive) each time.
Take `NCCNC(=S)S`: the GI50 with SF-295 is > 100 µM (inactive); in the experiment with HCT-15, 58.2 µM; in the experiment on TK-10 it was > 100 µM (inactive); in the experiment with CCRF-CEM, 22.4 µM (inactive); in the experiment with HT-29, 85.9 µM (inactive); with EKVX, > 100 µM (inactive). For the same molecule, the GI50 with ACHN is > 100 µM (inactive); with Malme-3M it was 11.9 µM (inactive); in the experiment on NCI-H522, 3.48 µM (inactive); in the experiment with COLO 205 it was > 100 µM (inactive); in the experiment on DU-145 it was > 100 µM (inactive); in the experiment with LOX IMVI, 51.8 µM (inactive). For the same molecule, the GI50 is > 100 µM (inactive) with U-251, 68.9 µM (inactive) with SN12C, 59.2 µM (inactive) with SW-620 and > 100 µM (inactive) with BT-549.
As for `CC(C)C(Sc1nc(N)nc2nc[nH]c12)C(=O)O` (stereo not drawn), the GI50 with SF-295 is > 100 µM (inactive); in the experiment on HCT-15, above 100 µM; in the experiment on TK-10 it was > 100 µM (inactive); in the experiment with CCRF-CEM, > 100 µM (inactive); with HT-29, > 100 µM (inactive); with EKVX, > 100 µM (inactive). For the same molecule, the GI50 in the experiment with ACHN, in the experiment on Malme-3M, in the experiment on NCI-H522, in the experiment with COLO 205, with DU-145 and with LOX IMVI was > 100 µM (inactive) throughout. Also, the GI50 in the experiment on U-251, in the experiment on SN12C, with SW-620, in the experiment with BT-549 and with NCI-H460 was > 100 µM (inactive) in each case.
As to `Cc1ccc2c(c1)Nc1cc(C(F)(F)F)ccc1[PH]2=O` (stereo not drawn), the GI50 in the experiment on SF-295 is 5.57 µM (inactive); with HCT-15, 43.6 µM; in the experiment with TK-10 it was 57.9 µM (inactive); in the experiment with CCRF-CEM, 14.9 µM (inactive); in the experiment with HT-29, 21.9 µM (inactive); in the experiment on EKVX, 3.78 µM (inactive). Further, the GI50 was 16.6 µM (inactive) in the experiment with ACHN; 31.8 µM (inactive) in the experiment on Malme-3M; 21.7 µM (inactive) in the experiment on NCI-H522; 21.8 µM (inactive) in the experiment on SF-539; 16.1 µM (inactive) in the experiment with COLO 205; 45.6 µM (inactive) in the experiment on DU-145. In addition, the GI50 is 26.1 µM (inactive) in the experiment on LOX IMVI; 27.2 µM (inactive) with U-251; 32.8 µM (inactive) with SN12C; 14.2 µM (inactive) with HOP-92; 23.4 µM (inactive) in the experiment with SW-620; 27.7 µM (inactive) in the experiment on NCI-H460.
Take `NN/C(=N\S(=O)(=O)c1cc2ccccc2s1)Nc1ccc(Cl)cc1`: the GI50 was 19.9 µM (inactive) in the experiment on SF-295; 30.5 µM in the experiment on HCT-15; 23 µM (inactive) with TK-10; 19.9 µM (inactive) in the experiment on HT-29; 19.2 µM (inactive) in the experiment with EKVX; 23.1 µM (inactive) in the experiment on ACHN. For the same molecule, the GI50 in the experiment on SF-539 is 16.1 µM (inactive); in the experiment with COLO 205, 17.3 µM (inactive); in the experiment on DU-145, 17.8 µM (inactive); in the experiment with LOX IMVI, 20.8 µM (inactive); in the experiment with U-251, 17.7 µM (inactive); in the experiment with SN12C, 22 µM (inactive). Besides, the GI50 with HOP-92 is 19 µM (inactive); in the experiment with SW-620, 23.1 µM (inactive); with BT-549 it was 18.9 µM (inactive); in the experiment with NCI-H460, 18.5 µM (inactive).
`CCC1(COC(NC(=O)c2ccccc2)(C(F)(F)F)C(F)(F)F)COC1`: the GI50 in the experiment with HCT-15 was above 100 µM; in the experiment on TK-10, > 100 µM (inactive); in the experiment with CCRF-CEM, > 100 µM (inactive); in the experiment with HT-29 it was > 100 µM (inactive); in the experiment on EKVX, > 100 µM (inactive); in the experiment with ACHN it was 65.6 µM (inactive). Besides, the GI50 in the experiment on SF-539, in the experiment on COLO 205, with LOX IMVI, in the experiment on U-251, in the experiment with SN12C and in the experiment with SW-620 was > 100 µM (inactive) each time. Moreover, the GI50 with BT-549 was > 100 µM (inactive).
As for `O=c1[nH][nH]c(=O)n1Cc1ccccc1`, the GI50 in the experiment on HCT-15 was above 100 µM; with TK-10, > 100 µM (inactive); with CCRF-CEM, > 100 µM (inactive); in the experiment with HT-29 it was > 100 µM (inactive); in the experiment on EKVX it was > 100 µM (inactive); with Malme-3M, > 100 µM (inactive). The GI50 in the experiment with NCI-H522, in the experiment with SF-539, with COLO 205, in the experiment with DU-145, in the experiment with LOX IMVI and with U-251 was > 100 µM (inactive) throughout. Besides, the GI50 in the experiment on SN12C, in the experiment on SW-620, in the experiment on BT-549 and in the experiment on NCI-H460 was > 100 µM (inactive) throughout.
Take `COc1cccc(-c2cc(O)c3c(C)ccnc3n2)c1`: the GI50 is 0.029 µM (active) with SF-295; 0.0486 µM in the experiment with HCT-15; > 100 µM (inactive) in the experiment on TK-10; 0.029 µM (active) with CCRF-CEM; 0.0233 µM (active) with HT-29; 0.225 µM (active) in the experiment on EKVX. Moreover, the GI50 is 0.0483 µM (active) with ACHN; < 0.01 µM (active) in the experiment on Malme-3M; 0.0275 µM (active) with NCI-H522; 0.0272 µM (active) with SF-539; 0.0199 µM (active) in the experiment with COLO 205; 0.0471 µM (active) in the experiment on DU-145. Besides, the GI50 in the experiment on LOX IMVI was 0.0625 µM (active); in the experiment on U-251, 0.036 µM (active); in the experiment on SN12C, 0.0655 µM (active); with SW-620, < 0.0177 µM (active); with BT-549 it was 21.2 µM (inactive); in the experiment with NCI-H460, 0.0395 µM (active).
Turning to `Cc1nn(C(=O)Cc2ccccc2)c2c1C(c1ccc(/C=C/c3ccccc3)cc1)SC(=N)N2` (stereo not drawn), the GI50 in the experiment on SF-295 was > 100 µM (inactive); in the experiment with HCT-15 it was above 100 µM; in the experiment on TK-10, > 100 µM (inactive); in the experiment with CCRF-CEM, > 100 µM (inactive); in the experiment with HT-29, > 100 µM (inactive); in the experiment on EKVX, > 100 µM (inactive). The GI50 in the experiment with ACHN, in the experiment on Malme-3M, with NCI-H522, in the experiment on SF-539, in the experiment with COLO 205 and in the experiment on DU-145 was > 100 µM (inactive) in each case. Also, the GI50 with LOX IMVI, in the experiment on SN12C, in the experiment on SW-620, in the experiment on BT-549 and with NCI-H460 was > 100 µM (inactive) each time.
As to `Cc1cc2c(c(C)c1O)C(C)(C)CN2C(=O)C(C)(C)C`, the GI50 in the experiment with SF-295 was > 100 µM (inactive); with HCT-15 it was above 100 µM; in the experiment on TK-10, > 100 µM (inactive); with CCRF-CEM it was 77.6 µM (inactive); in the experiment on HT-29, 57 µM (inactive); in the experiment on EKVX it was > 100 µM (inactive). In addition, the GI50 with ACHN is > 100 µM (inactive); in the experiment on NCI-H522, > 100 µM (inactive); in the experiment with SF-539, > 100 µM (inactive); in the experiment on COLO 205 it was 86.7 µM (inactive); in the experiment with DU-145 it was > 100 µM (inactive); in the experiment on LOX IMVI it was > 100 µM (inactive). Also, the GI50 was > 100 µM (inactive) in the experiment on U-251; > 100 µM (inactive) in the experiment with SN12C; 20 µM (inactive) in the experiment on HOP-92; > 100 µM (inactive) in the experiment on SW-620; > 100 µM (inactive) with NCI-H460.
